Data set [1] has as its target glucagon-like peptide 1 receptor (GLP-1R) (Homo sapiens, UniProt P43220). Put plainly: cellular assay, agonist activity at GLP-1R. Format: cell-based. From the text:
This disclosure relates to a dual agonist peptide(s) as well as pharmaceutical dosage formulations comprising, and methods for using, the same. The dual agonist peptides have affinity for, and in preferred embodiments about equal affinity for, glucagon-like peptide 1 receptor (GLP-1R) and glucagon receptor (GCGR), as may be determined using a cellular assay. In some embodiments, this disclosure provides pharmaceutical dosage formulations configured to induce weight loss in a human being with fatty liver disease. In some embodiments, the human being may, or may not, suffer from type 2 diabetes. In some embodiments, the disclosure provides pharmaceutical dosage formulations configured to reduce pathogenic plasma lipid mediators. As used herein, “pathogenic” serum lipid mediators, included but are not limited to the following reactive lipid species: malondialdehyde (MDA), isolevuglandins (IsoLG), methyglyoxal (MGO), 4-oxononenal (ONE), and 4-hydroxynonenal (HNE). Oxidized phospholipids include 1-palmitoyl-2-oxovaleroyl-sn-glycero-3-phosphorylcholine (POVPC), 1-O-alkyl-2-azelaoyl-sn-glycero-3-phophorylcholine (azPAF), 1-(Palmitoyl)-2-(5-keto-6-octene-dioyl) phosphatidylcholine (KOdiA-PC), 1-palmitoyl-2-F2-isoprostane-sn-glycero-3-phosphocholine (F2IsoP-PC), and 1-palmitoyl-2-(5,6)-epoxyisoprostane E2-sn-glycero-3-phosphocholine (PEIPC). […]

Data set [2] is described as follows: Phase II 24-week interim analysis in non-diabetic obese and overweight subjects (NCT05295875, Example 4). In kind it is in vivo, human. The source says: Results presented in this example correspond to a 24-week interim analysis obtained from a placebo-controlled phase II study (ClinicalTrials.gov Identifier: NCT05295875) evaluating pemvidutide (ALT-801) in obese and overweight subjects. It is estimated that 70 to 75% subjects of this population have NAFLD while 34% may have NASH (Quek J. et al. Global prevalence of non-alcoholic fatty liver disease and non-alcoholic steatohepatitis in the overweight and obese population: a systematic review and meta-analysis. Lancet Gastroenterol Hepatol. 2023 January; 8(1):20-30). Key eligibility criteria were: (1) Men and women, ages 18-75 years; (2) at least one unsuccessful weight loss attempt per Investigator judgement; (3) Body Mass Index (BMI) ≥30 kg/m2 or BMI ≥27 kg/m2 with at least one obesity-related comorbidity (history of cardiovascular disease, hypertension, dyslipidemia, pre-diabetes or obstructive sleep apnea) and (4) non-diabetes (HbA1c ≤6.5% and fasting glucose ≤125 mg/dL). Eligible subjects were randomized 1:1:1:1 to one of the following treatment arms: Group 1 (39 subjects): pemvidutide 1.2 mg SC once weekly for 24 weeks; Group 2 (40 subjects): pemvidutide 1.8 mg administered subcutaneously once weekly for 24 weeks; Group 3 (40 subjects): pemvidutide 0.6 mg administered subcutaneously for 1 week, 1.2 mg administered subcutaneously for 1 week, 1.8 mg administered subcutaneously once weekly for 2 weeks, followed by 2.4 mg administered subcutaneously once weekly for 20 additional weeks (in sequence) and Group 4 (41 subjects): Placebo administered subcutaneously once weekly for 24 weeks. The randomization of subjects was stratified based on sex and baseline body mass index (BMI <35 kg/m2 vs. ≥35 kg/m2). A minimum of 25% of randomized subjects were male. All subjects received counselling on a reduced-calorie diet of 1200-1500 calories for individuals <250 lbs (113.6 kg) and 1500-1800 calories for individuals ≥250 lbs (113.6 kg) and a gradual increase in physical activity (targeting 150 min of physical activity per week) by a qualified healthcare professional at screening and at subsequent visits during the treatment period. Subjects were instructed to record their food intake and physical activity daily, and compliance with lifestyle interventions will be assessed by the investigator on a regular basis. A subgroup of subjects were subjected MRI-PDFF to evaluate the hepatic fat fraction in as well as composition to measure total body adipose tissue (AT) and adipose tissue-free mass (ATFM).
FIG. 27 presents the mean percentage weight loss over time in all evaluated subjects across the three pemvidutide doses and placebo over 24 weeks. Results are presented as efficacy estimand that assumes subjects remained on treatment for the entire duration, with missing values handled by Mixed Models for Repeated Measures. […] FIG. 28 presents the mean percentage weight loss (presented as efficacy estimand as described above) that was achieved over 24 weeks with pemvidutide and placebo in a subgroup of subjects with baseline body weight ≤115 kg. […] This phenomenon may relate to a lower level of drug exposure in subjects with higher body weight, and would support the possibility to increase dose levels in this population to maximize efficacy. FIG. 29 presents a weight loss responder analysis based on calculation of percentage of subjects who respectively achieve ≥5%, ≥10% and ≥15% weight loss across the three pemvidutide doses and placebo. FIG. 30 presents the percentage weight loss achieved across the four groups comparing Hispanic versus non-Hispanic subjects. […] Waist circumference is an index of central or abdominal obesity recommended by the WHO to assess the risk of metabolic diseases such as NAFLD and NASH and cardiovascular diseases.

Sequence of glucagon-like peptide 1 receptor (GLP-1R) (P43220 24-463): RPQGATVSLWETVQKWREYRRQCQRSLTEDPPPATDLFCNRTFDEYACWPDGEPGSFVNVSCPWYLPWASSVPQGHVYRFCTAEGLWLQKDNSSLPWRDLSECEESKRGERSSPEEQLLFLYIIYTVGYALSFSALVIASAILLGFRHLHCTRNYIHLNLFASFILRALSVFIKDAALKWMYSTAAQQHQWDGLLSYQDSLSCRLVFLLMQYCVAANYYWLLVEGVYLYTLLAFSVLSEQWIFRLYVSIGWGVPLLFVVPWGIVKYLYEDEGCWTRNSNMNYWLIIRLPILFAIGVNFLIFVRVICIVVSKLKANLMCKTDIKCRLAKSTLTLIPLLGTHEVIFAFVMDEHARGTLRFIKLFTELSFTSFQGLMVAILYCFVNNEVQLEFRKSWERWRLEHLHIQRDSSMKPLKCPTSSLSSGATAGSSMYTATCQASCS

Turning to `CC[C@H](C)[C@H](NC(=O)[C@H](Cc1ccccc1)NC(=O)[C@H](CCC(=O)O)NC(=O)[C@@H]1CCCCNC(=O)CC[C@H](NC(=O)[C@H](CC(=O)O)NC(=O)[C@H](CC(C)C)NC(=O)[C@H](Cc2ccc(O)cc2)NC(=O)[C@H](CCCCN)NC(=O)[C@H](CO)NC(=O)[C@H](Cc2ccc(O)cc2)NC(=O)[C@H](CC(=O)O)NC(=O)[C@H](CO)NC(=O)[C@@H](NC(=O)[C@H](Cc2ccccc2)NC(=O)[C@@H](NC(=O)CNC(=O)[C@H](CCC(N)=O)NC(=O)C(C)(C)NC(=O)[C@@H](N)Cc2c[nH]cn2)[C@@H](C)O)[C@H](C)O)C(=O)N[C@@H](CCCCNC(=O)C2O[C@@H](OCCCCCCCCCCCCCCCCCC(=O)O)C(O)C(O)[C@@H]2O)C(=O)N[C@@H](C)C(=O)N[C@@H](C)C(=O)N1)C(=O)N[C@@H](CCC(N)=O)C(=O)N[C@@H](Cc1c[nH]c2ccccc12)C(=O)N[C@@H](CC(C)C)C(=O)N[C@@H](CC(C)C)C(=O)N[C@@H](CCC(N)=O)C(=O)N[C@H](C(N)=O)[C@@H](C)O` (some centres unmarked) [ALT-801, Pemvidutide], in data set [1], the EC50 – broadly, the concentration at which the effect is half-maximal – was roughly 0.04 nM. The heart rate result in data set [2] (1.2, 1.8, 2.4 mg, 24-week treatment) is listed as “do not induce a significant change in heart rates”. Further, the “systolic and diastolic blood pressure” value in data set [2] (24-week treatment) is “improves both systolic and diastolic blood pressures in a dose dependent manner”. Also, the “weight loss, Hispanic versus non-Hispanic subjects” value in data set [2] (24 weeks) is reported as “tend to lose less body weight”. Besides, in data set [2] (all doses, week 24), the serum lipids entry is recorded as “decreased as compared to baseline” and the waist circumference entry is “significant reduction in waist circumference”. Further, the “mean percentage weight loss over time” value in data set [2] (all evaluated subjects, 1.2, 1.8, 2.4 mg, 24 weeks) was “progressive, dose-dependent weight loss”. Further, the “weight loss in subgroup vs all subjects” value in data set [2] (baseline body weight <=115 kg, 24 weeks) is reported as “higher levels of weight loss”.

Source of the values: patent US20240269238A1, “Therapeutic Regimens and Methods for Reducing Body Weight in a Subject with Fatty Liver Disease using a GLP-1R and GCGR Agonist” (Spitfire Pharma LLC, priority 2022, published 2024).
